Data published in DBAASP.
Converted amounts (≈) assume the structure as drawn.

Experiments:
Assay in all cases: ≥ marks a high value that may be exact or a test limit, other limits are often not marked, values filed in µg/mL are converted to µM
[1] = test system: Streptococcus mutans
[2] = test system: Escherichia coli ATCC 25922
[3] = test system: Pseudomonas aeruginosa Ps4
[4] = test system: Bacillus subtilis 168
[5] = test system: Micrococcus luteus CCM 144
[6] = test system: Candida albicans F7-39/IDE99
[7] = test system: Escherichia coli B
[8] = test system: Pseudomonas aeruginosa
[9] = test system: Staphylococcus aureus
[10] = test system: Escherichia coli JW0013
[11] = test system: Staphylococcus aureus ATCC 25923
[12] = test system: Pseudomonas aeruginosa PAO1
[13] = test system: Escherichia coli UB1005

Work on `NC(=O)[C@H](Cc1ccccc1)NC(=O)[C@H](CCCN=C(N)N)NC(=O)[C@H](Cc1cnc[nH]1)NC(=O)[C@H](Cc1ccccc1)NC(=O)[C@H](Cc1c[nH]c2ccccc12)NC(=O)[C@H](Cc1cnc[nH]1)NC(=O)[C@H](Cc1c[nH]c2ccccc12)NC(=O)[C@H](Cc1ccccc1)NC(=O)[C@H](Cc1ccc(O)cc1)NC(=O)[C@H](Cc1cnc[nH]1)NC(=O)[C@@H](N)Cc1ccccc1` [FHYFWHWFHRF] yielded an MIC [1] of at least 73.1 µM.

Work on `CC(C)C[C@H](NC(=O)[C@H](CC(C)C)NC(=O)[C@H](Cc1cnc[nH]1)NC(=O)[C@H](Cc1cnc[nH]1)NC(=O)[C@H](CC(C)C)NC(=O)[C@H](CCCCN)NC(=O)[C@H](CCCCN)NC(=O)[C@H](CC(C)C)NC(=O)[C@H](CC(C)C)NC(=O)[C@H](CCCN=C(N)N)NC(=O)[C@H](CCCN=C(N)N)NC(=O)[C@H](Cc1c[nH]c2ccccc12)NC(=O)[C@H](CCCN=C(N)N)NC(=O)CNC(=O)CNC(=O)CNC(=O)[C@H](Cc1ccccc1)NC(=O)[C@H](CCCN=C(N)N)NC(=O)[C@H](CCCN=C(N)N)NC(=O)[C@H](Cc1ccccc1)NC(=O)[C@H](Cc1c[nH]c2ccccc12)NC(=O)[C@H](CCCCN)NC(=O)[C@H](Cc1c[nH]c2ccccc12)NC(=O)[C@H](Cc1ccccc1)NC(=O)[C@H](CCCCN)NC(=O)[C@H](CCCCN)NC(=O)[C@@H](N)Cc1ccccc1)C(=O)N[C@@H](Cc1cnc[nH]1)C(N)=O` [FKKFWKWFRRFGGGRWRRLLKKLHHLLH] yielded an MIC [1] of 4.28 µM (≈ 16 µg/mL).

In the case of `CCC(C)C(NC(=O)C(CC(N)=O)NC(=O)C(CCCN=C(N)N)NC(=O)C(CCC(N)=O)NC(=O)C(Cc1c[nH]c2ccccc12)NC(=O)C(CCC(N)=O)NC(=O)C(N)Cc1ccccc1)C(=O)NC(CCCN=C(N)N)C(=O)NC(CCCCN)C(=O)NC(C(=O)NC(CCCN=C(N)N)C(N)=O)C(C)C` (stereo unspecified) [FQWQRNIRKVR], the MIC [2] is reported as over 163 µM and the MIC [3] is reported as at least 163 µM.

`CC[C@H](C)[C@H](NC(=O)[C@H](CC(N)=O)NC(=O)[C@H](CCCN=C(N)N)NC(=O)[C@H](C)NC(=O)[C@H](Cc1c[nH]c2ccccc12)NC(=O)[C@@H](NC(=O)[C@@H](N)Cc1ccccc1)C(C)C)C(=O)N[C@@H](CCCN=C(N)N)C(=O)N[C@@H](CCCCN)C(=O)N[C@H](C(=O)N[C@@H](CCCN=C(N)N)C(N)=O)C(C)C` [FVWARNIRKVR] gave an MIC [3] of at least 173 µM.

Work on `CC[C@H](C)[C@H](NC(=O)[C@H](CCCN=C(N)N)NC(=O)[C@@H](NC(=O)[C@H](CC(N)=O)NC(=O)[C@H](CCCN=C(N)N)NC(=O)CNC(=O)[C@H](Cc1c[nH]c2ccccc12)NC(=O)[C@@H](N)Cc1ccccc1)[C@@H](C)CC)C(=O)N[C@@H](CCCN=C(N)N)C(=O)N[C@@H](CCCN=C(N)N)C(N)=O` [FWGRNIRIRR] yielded an MIC [3] of at least 182 µM.

For `CC[C@H](C)[C@H](NC(=O)[C@H](CCCCN)NC(=O)[C@H](CCCN=C(N)N)NC(=O)[C@@H](NC(=O)[C@H](CC(N)=O)NC(=O)[C@H](CCCN=C(N)N)NC(=O)[C@H](CCC(N)=O)NC(=O)[C@H](Cc1c[nH]c2ccccc12)NC(=O)[C@@H](N)Cc1ccccc1)[C@@H](C)CC)C(=O)N[C@@H](CCCN=C(N)N)C(N)=O` [FWQRNIRKIR], the MIC [3] was at least 176 µM.

With `CC[C@H](C)[C@H](NC(=O)[C@H](CC(N)=O)NC(=O)[C@H](CCCN=C(N)N)NC(=O)[C@H](CCC(N)=O)NC(=O)[C@H](Cc1c[nH]c2ccccc12)NC(=O)[C@@H](N)Cc1ccccc1)C(=O)N[C@@H](CCCN=C(N)N)C(=O)N[C@@H](CCCCN)C(=O)N[C@@H](CC(C)C)C(=O)N[C@@H](CCCN=C(N)N)C(N)=O` [FWQRNIRKLR] the MIC [3] was at least 176 µM.

In the case of `CC[C@H](C)[C@H](NC(=O)[C@H](CC(N)=O)NC(=O)[C@H](CCCN=C(N)N)NC(=O)[C@H](CCC(N)=O)NC(=O)[C@H](Cc1c[nH]c2ccccc12)NC(=O)[C@@H](N)Cc1ccccc1)C(=O)N[C@@H](Cc1c[nH]c2ccccc12)C(=O)N[C@@H](CCCN=C(N)N)C(=O)N[C@@H](CCCN=C(N)N)C(N)=O` [FWQRNIWRR], the MIC [3] is reported as at least 184 µM.

In the case of `NC(=O)CC[C@H](NC(=O)[C@H](Cc1c[nH]c2ccccc12)NC(=O)[C@@H](N)Cc1ccccc1)C(=O)N[C@@H](CCCN=C(N)N)C(=O)N[C@@H](CC(N)=O)C(=O)N[C@@H](Cc1c[nH]c2ccccc12)C(=O)N[C@@H](CCCN=C(N)N)C(=O)N[C@@H](Cc1ccccc1)C(=O)N[C@@H](CCCN=C(N)N)C(=O)N[C@@H](CCCN=C(N)N)C(N)=O` [FWQRNWRFRR], the MIC [3] is reported as at least 161 µM.

`CC[C@H](C)[C@H](NC(=O)[C@H](C)NC(=O)CNC(=O)[C@H](Cc1c[nH]c2ccccc12)NC(=O)[C@H](CC(N)=O)NC(=O)[C@@H](N)CC(C)C)C(=O)N[C@@H](CC(C)C)C(=O)N[C@@H](CCCCN)C(=O)N[C@@H](Cc1cnc[nH]1)C(=O)N[C@@H](CCCCN)C(=O)N[C@H](C(=O)N[C@@H](CCCCN)C(N)=O)[C@@H](C)CC` [LNWGAILKHKIK] was tested, and the MIC [4] was at least 41.7 µM, the MIC [5] was 30 µM (≈ 42.6 µg/mL) and the MIC [6] was at least 100 µM. For the same molecule, the MIC [7] was at least 100 µM, the MIC [8] was over 100 µM and the MIC [9] was over 100 µM.

`CC[C@H](C)[C@H](NC(=O)[C@H](Cc1cnc[nH]1)NC(=O)[C@H](CCCCN)NC(=O)[C@H](CC(C)C)NC(=O)[C@H](CCCCN)NC(=O)[C@H](C)NC(=O)CNC(=O)[C@H](Cc1c[nH]c2ccccc12)NC(=O)[C@H](CC(N)=O)NC(=O)[C@@H](N)CC(C)C)C(=O)N[C@H](C(=O)N[C@@H](CCCCN)C(N)=O)[C@@H](C)CC` [LNWGAKLKHIIK] showed an MIC [4] of at least 55.8 µM, an MIC [5] of at least 38.8 µM and an MIC [6] of at least 50 µM. It also gave an MIC [7] of at least 100 µM, an MIC [8] of over 100 µM and an MIC [9] of over 100 µM.

Work on `CC(C)C[C@H](NC(=O)[C@H](C)NC(=O)CNC(=O)[C@H](Cc1c[nH]c2ccccc12)NC(=O)[C@H](CC(N)=O)NC(=O)[C@@H](N)CC(C)C)C(=O)N[C@@H](CC(C)C)C(=O)N[C@@H](CCCCN)C(=O)N[C@@H](Cc1cnc[nH]1)C(=O)N[C@@H](CC(C)C)C(=O)N[C@@H](CC(C)C)C(=O)N[C@@H](CCCCN)C(N)=O` [LNWGALLKHLLK] yielded an MIC [4] of 1.6 µM (≈ 2.25 µg/mL), an MIC [5] of 2.2 µM (≈ 3.09 µg/mL) and an MIC [6] of 6.7 µM (≈ 9.41 µg/mL). The MIC [7] was 3.8 µM (≈ 5.34 µg/mL), the MIC [8] was 40 µM (≈ 56.2 µg/mL) and the MIC [9] was 6.7 µM (≈ 9.41 µg/mL).

`CC(C)C[C@H](NC(=O)[C@H](C)NC(=O)[C@H](CCC(=O)O)NC(=O)[C@H](CCCCN)NC(=O)[C@H](C)NC(=O)[C@H](CCC(=O)O)NC(=O)[C@H](Cc1cnc[nH]1)NC(=O)[C@H](CC(C)C)NC(=O)[C@H](C)NC(=O)[C@@H](N)CCCN=C(N)N)C(=O)N[C@@H](CCCCN)C(=O)O` [RALHEAKEALK] was tested, and the MIC [1] was at least 198 µM.

With `CC[C@H](C)[C@H](NC(=O)[C@H](CCCN=C(N)N)NC(=O)[C@H](CCCN=C(N)N)NC(=O)[C@@H]1CCCN1C(=O)[C@@H]1CCCN1C(=O)[C@H](CCCN=C(N)N)NC(=O)[C@@H]1CCCN1C(=O)[C@H](CCCN=C(N)N)NC(=O)[C@@H]1CCCN1C(=O)[C@H](CC(C)C)NC(=O)[C@H](CCCN=C(N)N)NC(=O)[C@@H]1CCCN1C(=O)[C@@H]1CCCN1C(=O)[C@H](CCCCN)NC(=O)[C@H](CC(=O)O)NC(=O)[C@@H](N)C(C)C)C(=O)N[C@@H](Cc1ccc(O)cc1)C(=O)N[C@@H](CC(N)=O)C(=O)N[C@@H](CCCN=C(N)N)C(N)=O` [VDKPPRLPRPRPPRRIYNR] the MIC [10] was 1.38 µM (≈ 3.3 µg/mL).

Molecule `CC[C@H](C)[C@H](NC(=O)[C@H](CCCN=C(N)N)NC(=O)[C@H](CCCN=C(N)N)NC(=O)[C@@H]1CCCN1C(=O)[C@@H]1CCCN1C(=O)[C@H](CCCN=C(N)N)NC(=O)[C@H](CCCN=C(N)N)NC(=O)[C@H](CCCN=C(N)N)NC(=O)[C@@H]1CCCN1C(=O)[C@H](CC(C)C)NC(=O)[C@H](Cc1ccc(O)cc1)NC(=O)[C@@H]1CCCN1C(=O)[C@@H]1CCCN1C(=O)[C@H](CCCCN)NC(=O)[C@H](CC(=O)O)NC(=O)[C@@H](N)C(C)C)C(=O)N[C@@H](Cc1ccc(O)cc1)C(=O)N[C@@H](CC(N)=O)C(=O)N[C@@H](CCCN=C(N)N)C(N)=O` [VDKPPYLPRRRPPRRIYNR] has an MIC [11] of 6.53 µM (≈ 16 µg/mL), an MIC [12] of 26.1 µM (≈ 64 µg/mL) and an MIC [13] of 2.04 µM (≈ 5 µg/mL). The MIC [10] was 0.98 µM (≈ 2.4 µg/mL).

For `CC[C@H](C)[C@H](NC(=O)[C@H](CCCN=C(N)N)NC(=O)[C@H](CCCN=C(N)N)NC(=O)[C@@H]1CCCN1C(=O)[C@@H]1CCCN1C(=O)[C@H](CCCN=C(N)N)NC(=O)[C@@H]1CCCN1C(=O)[C@H](CCCN=C(N)N)NC(=O)[C@@H]1CCCN1C(=O)[C@H](CC(C)C)NC(=O)[C@H](CCCN=C(N)N)NC(=O)[C@H](Cc1cnc[nH]1)NC(=O)[C@H](CCCN=C(N)N)NC(=O)[C@H](CCCCN)NC(=O)[C@H](CC(=O)O)NC(=O)[C@@H](N)C(C)C)C(=O)N[C@@H](Cc1ccc(O)cc1)C(=O)N[C@@H](CC(N)=O)C(=O)N[C@@H](CCCN=C(N)N)C(N)=O` [VDKRHRLPRPRPPRRIYNR], the MIC [10] was 0.524 µM (≈ 1.3 µg/mL).

`CC(C)C[C@H](NC(=O)[C@H](CCCCN)NC(=O)[C@H](CCCCN)NC(=O)[C@@H](N)C(C)C)C(=O)N[C@@H](C)C(=O)N[C@@H](CCCCN)C(=O)N[C@@H](CC(C)C)C(=O)N[C@H](C(=O)N[C@@H](CCCN=C(N)N)C(=O)N[C@@H](CCCN=C(N)N)C(=O)N[C@@H](Cc1ccccc1)C(N)=O)C(C)C` [VKKLAKLVRRF] showed an MIC [1] of 16.7 µM (≈ 22.6 µg/mL).
